Experimental findings from patent publication US8377640B2, “Diagnostic screens for Alzheimer's disease” (ISIS Innovation Ltd., priority 2001, dated 2013) are described below.

The test system of assay [1] is cultured lymphocytes. Put plainly: MTT survival assay of PHA-activated lymphocyte cultures, treated versus control. Format: cell-based, human. The procedure: In the second set of experiments (53 subjects) after an initial 48 hours incubation (as above) four separate cultures were set up. Control cultures were left without any treatment, one set of cultures was treated with 100 ng/ml rapamycin, the third set was treated with 1 μM doxorubicin while the fourth set was treated with 120 μM H2O2. Doxorubicin induces DNA damage, leading to arrest at G2/M, rather than G1/S. H2O2 treatment produces oxidative stress, leading to a reversible and temporary cell cycle arrest at G1/S.
After 20 hours of incubation a 4 hour long MTT survival assay (Chemicon International Ltd) was set up. Results were read using a microplate reader (570 filter; 630 reference filter). The ratio between cell numbers in treated cultures versus controls was expressed as percent.
(Tetrazolium dyes change colour on reduction, which living cells bring about.)

Assay [2] concerns cultured lymphocytes. In words: Relative lengthening of the G1 phase (BrdU incorporation, FACS) in PHA-activated lymphocyte cultures treated with rapamycin. Format: cell-based, human. Particulars: 100 ng/ml rapamycin; for dG1: relative lengthening of the G1 phase of the cell cycle under Rapamycin effect: 24 h; for Mean (dG1): group mean. The procedure:
A first set of experiments was carried out on 49 subjects (Table 1A), whilst a second set of experiments was carried out on 55 subjects (Table 1B). In the first set of experiments (49 subjects) two parallel lymphocyte cultures were set up from every individual in RPMI medium supplemented with 10% FCS at a concentration of 1×10^6 cells per 1 ml of culture media. Phytohaemaglutinin (PHA) was added to the cultures at a final concentration of 22 μg/ml to activate the lymphocytes. Cultures were incubated for 48 hours at 37° C. in a humidified atmosphere containing 5% CO2. After 48 hours incubation one culture was treated with 100 ng/ml rapamycin, while the other untreated culture was kept as a control. After a further 23 hours incubation BrdU was added in a concentration of 10 μg/ml to all cultures. After another hour cultures were ‘collected’ and fixed in 70% ice-cold ethanol. BrdU incorporation was assessed using immunohistochemistry followed by FACS analysis. The proportion of cells in various phases of the cell cycle was determined and data transformation performed to obtain the relative lengthening of the G1 phase (FIG. 1).
The calculations (relative lengthening of the G1 phase of the cell cycle in treated cultures relative to control cultures) were based on the assumptions that cells were in the exponential phase of proliferation and that the growth fraction in the cultures (ratio of dividing cells versus quiescent cells) was 1.0 (5). It was also assumed that rapamycin only altered the length of the G1 phase (19). Based on these assumptions the relative lengthening of the G1 phase was calculated using the formula: RL=100f-100 (expressed in percent). The ratio of the G1 time in treated versus control cultures: f=TG1tr/TG1c=[1n2−1n(2−G1tr)][1n(2−G1c)]/[1n(2−G1tr)][1n2−1n(2−G1c)] (5)

“And” between values parts separate entries of the source, which are not always exact repeats. Identical values can stand only once.

Regarding `COc1cccc2c1C(=O)c1c(O)c3c(c(O)c1C2=O)C[C@@](O)(C(=O)CO)C[C@@H]3O[C@H]1C[C@H](N)[C@H](O)[C@H](C)O1` [Doxorubicin, doxorubicin], the “Cell numbers after treatment (treated versus control cultures)” value in assay [1] (1 μM doxorubicin, 24 h, comparison between patient groups) was “did not result in significant differences between patient groups”.

For the molecule `OO` [H2O2], in assay [1] (120 μM H2O2, 24 h, AD, preAD and possAD patients versus control subjects), the “Cell numbers after treatment (treated versus control cultures)” value is recorded as “significantly higher cell numbers than control subjects”.

As for `CO[C@H]1C[C@@H]2CC[C@@H](C)[C@@](O)(O2)C(=O)C(=O)N2CCCC[C@H]2C(=O)O[C@H]([C@H](C)C[C@@H]2CC[C@@H](O)[C@H](OC)C2)CC(=O)[C@H](C)/C=C(\C)[C@@H](O)[C@@H](OC)C(=O)[C@H](C)C[C@H](C)/C=C/C=C/C=C/1C` [rapamycin], the “dG1: relative lengthening of the G1 phase of the cell cycle under Rapamycin effect” value in assay [2] (lymphocytes of individual patients, diagnosis AD (probable AD, NINCDS)) is 44.03% and 97.07% and 82.67% and 62.12% and 73.01% and 47.91% and 53.63% and 0% and 27%; in assay [2] (lymphocytes of individual patients, diagnosis ADM), 64.28% and 39.2% and 95.23% and 46.31% and 59.49% and 51.81% and 51.62%; in assay [2] (lymphocytes of individual patients, diagnosis DNOS) it was 31.64% and 69.07% and 97.27%; in assay [2] (lymphocytes of individual patients, diagnosis possAD), 56.77% and 60.1% and 98.1%; in assay [2] (lymphocytes of individual subjects, diagnosis Control), 51.69% and 64.1% and 40.07% and 114.1% and 119.8% and 50.04% and 177.8% and 62.81% and 54.56% and 162.7% and 97.33% and 46.02% and 110.8% and 140.6%; in assay [2] (lymphocytes of individual subjects, diagnosis preAD) it was 0% (3×) and 26.1% and 36.18% and 54.46% and 39.2% and 72.58% and 44.49% and 31.37% and 25.47% and 35.02% and 42.1%. The “Mean (dG1)” value in assay [2] (AD, n=9) turned out to be 54.1602%; in assay [2] (ADM, n=7), 58.2765%; in assay [2] (CONTROL, n=14) it was 92.3135%; in assay [2] (DNOS, n=3), 65.9933%; in assay [2] (POSSAD, n=3), 71.6584%; in assay [2] (PREAD, n=13), 31.3039%. Besides, the “Mean dG1 by ApoE4” value was determined as 61.1186% in assay [2] (subjects with 0 ApoE4 alleles, n=28); 63.0025% in assay [2] (subjects with 1 ApoE4 allele, n=19); 49.6519% in assay [2] (subjects with 2 ApoE4 alleles, n=2).
